Holding throughout (format): cell-based
Assay [1] concerns the target T1, Mrgpra1 (Mus musculus, UniProt Q91WW5).
T1 sequence (Q91WW5 1-304): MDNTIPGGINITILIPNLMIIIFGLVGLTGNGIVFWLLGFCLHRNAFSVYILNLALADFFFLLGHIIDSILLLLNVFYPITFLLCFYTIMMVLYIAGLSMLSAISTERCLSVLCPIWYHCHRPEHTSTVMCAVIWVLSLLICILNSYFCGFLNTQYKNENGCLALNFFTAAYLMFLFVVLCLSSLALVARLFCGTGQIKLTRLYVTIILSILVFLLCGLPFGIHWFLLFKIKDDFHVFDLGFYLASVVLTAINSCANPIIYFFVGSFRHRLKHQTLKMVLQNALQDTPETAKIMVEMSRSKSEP
Put plainly: calcium imaging, […] DCA in Mrgpra1-HEK293T cells.

The next assay deals with T2, Mrgprb2 (Mus musculus, UniProt Q3KNA1).
T2 sequence (Q3KNA1 1-338): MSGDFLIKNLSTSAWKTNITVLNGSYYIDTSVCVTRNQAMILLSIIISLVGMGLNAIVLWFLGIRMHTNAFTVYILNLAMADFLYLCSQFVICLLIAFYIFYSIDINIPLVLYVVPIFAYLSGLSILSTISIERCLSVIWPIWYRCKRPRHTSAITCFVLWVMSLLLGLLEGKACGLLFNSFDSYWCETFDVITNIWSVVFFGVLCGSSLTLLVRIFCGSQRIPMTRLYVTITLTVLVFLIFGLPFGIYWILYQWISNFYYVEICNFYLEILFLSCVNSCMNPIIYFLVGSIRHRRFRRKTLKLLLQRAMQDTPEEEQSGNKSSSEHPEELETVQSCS
Put plainly: calcium imaging.

For assay [2], the target named is T1, Mrgpra1. Put plainly: calcium imaging.

For the compound `C[C@H](CCC(=O)O)[C@H]1CC[C@H]2[C@@H]3CC[C@@H]4C[C@H](O)CC[C@]4(C)[C@H]3C[C@H](O)[C@]12C` [DCA, deoxycholic acid], on Mrgpra1 [1], the “calcium imaging, 100 μM DCA in Mrgpra1-HEK293T cells (weaker than LCA)” value is on record as “also elevated the fluorescence intensity in Mrgpra1-HEK293T, but to a lesser extent (Fig. 1B, 1C)”.

As a reminder, the EC50 is the concentration needed to bring the measured effect to its halfway point. Take `C[C@H](CCC(=O)O)[C@H]1CC[C@H]2[C@@H]3CC[C@@H]4C[C@H](O)CC[C@]4(C)[C@H]3CC[C@]12C` [LCA, 3α-hydroxy-5β-cholan-24-oic acid]: the values for the EC50 at Mrgprb2 and at Mrgpra1 [2] were 183 µM and 290 µM, respectively.

The record behind these values is article PMC8724838 (Biomolecules & Therapeutics, 2021).
